Data: patent US20030228672A1, “Sorbitol dehydrogenases of ketogulonigenium species, genes and methods of use thereof” (priority 2002, published 2003)

Experiments:
[1] = tested on: dehydrogenase enzyme activity in cellular fractions; experiment: Enzyme assays with cellular fractions employing nicotinamide cofactors; assay type: biochemical, K. robustum ADM X6L and Ketogulonigenium sp. ADM 291-19; details: different substrates, either strain
[2] = tested on: SDH; experiment: SDH activities in osmotic shock fractions, PMS-DCIP method; assay type: biochemical; details: for SDH activity, Osmotic Shock Fluid: Osmotic Shock Fluid (periplasmic fraction); for SDH activity, Pellet Sonicate: Pellet Sonicate (cytoplasm and cytoplasmic membrane); for SDH activity, Tris-Sucrose Wash: Tris-Sucrose Wash (periplasmic fraction)
Description: (§1) For more detailed localization study, periplasmic fraction was enriched by the method of osmotic shock (Neu, H. C. and Heppel, L. A., J. Biol. Chem., 240:3685 (1965)). Wet cells were resuspended at about 0.1 g/ml in 20% sucrose-0.03 M Tris·HCl buffer (pH 8.0) at room temperature. Di-sodium EDTA was added to 1 mM and the flask was shaken at 180 rpm at room temperature for 10 min. After centrifugation at 16,000 g for 20 min at 4° C., the supernatant was removed and the pellet was rapidly mixed with cold distilled water of the same volume as the original cell suspension and shaken in ice bucket in a shaker for 10 min. The mixture was centrifuged again to obtain the supernatant called “osmotic shock fluid”. The pellet was sonicated in the same buffer, centrifuged and the supernatant was obtained as “pellet sonicate”.
(§2) The dehydrogenase enzyme activity was assayed spectrophotometrically using 2,6-dichlorophenol indophenol (DCIP) as an artificial electron acceptor and phenazine methosulphate (PMS) as an electron mediator. The reaction mixture contained 50 mM Tris·HCl buffer (pH 8.0), 10 mM MgCl2, 5 mM CaCl2, 5 mM KCN, 0.1 mM PMS, 0.12 mM DCIP, a substrate as D-sorbitol (250 mM), L-sorbose (250 mM) or glyoxal (50 mM) and enzyme solution in a total volumn of 1.0 ml. The rate of decrease in absorbance at 522 nm was determined. One unit of enzyme activity was defined as the amount of enzyme catalyzing reduction of 1 μmol of DCIP per minute.
(§3) For further localization of the enzymes to periplasm or cytoplasm, periplasm was enriched by osmotic shock method as described in Step 3 of Example 1. In this method, the Tris-Sucrose wash and the osmotic shock fluid represent the periplasmic fraction and the pellet sonicate represents the cytoplasm and the cytoplasmic membrane. […] The remaining activity in pellet sonicate could be due to the incomplete release of periplasm by osmotic shock. Typical enzyme activity assay for SDH and β-galactosidase for fractions obtained by osmotic shock fractionation is shown in Table 3.

[3] = tested on: dehydrogenase enzyme activity (SDH) of Ketogulonigenium sp. ADM 291-19; experiment: Enzyme activity in cellular fractions, Ferric-Dupanol method (localization); assay type: biochemical
Description: (§4) Cells were harvested by centrifugation at 12,000 g for 10 min, washed once with 10 mM Tris·HCl buffer (pH 8.0) and disrupted by sonication in a Branson Sonifier 450 for 15 min at 50% duty cycle in ice. The homogenate thus prepared was centrifuged at 12,000 g for 5 min to remove the cell debris. The resulting supernatant was centrifuged at 100,000 g for 90 min to get the supernatant as soluble fraction and the precipitate as crude membrane fraction. The crude membrane fraction was solubilized with 1.5% n-octyl glucoside by stirring for 2 hours at 4° C. The resultant suspension was centrifuged at 12,000 g for 10 min to give a supernatant, designated as solubilized membrane fraction.
(§5) Enzyme activity was determined also by the Ferric-Dupanol method (Wood, W. A. et al., Meth. Enzymol., 5, 287 (1962)). The enzyme was preincubated for 5 min at 25° C. The reaction was started by addition of 10 mM (final conc.) potassium ferricyanide and 250 mM (final conc.) D-sorbitol, L-sorbose, or glyoxal. After an appropriate time, the reaction was stopped by adding the ferric sulfate-Dupanol solution (Fe2(SO4)3.nH2O 5 g/l, Dupanol (sodium lauryl sulfate) 3 g/l and 85% phosphoric acid 95 ml/l) and the absorbance of the Prussian color developed was determined at 660 nm in a spectrophotometer.
(§6) Enzyme activities towards D-sorbitol, L-sorbose and glyoxal in different cellular fractions were determined for enzyme localization in K. robustum ADM X6L and Ketogulonigenium sp. ADM 291-19. In both cases, most of the enzyme activity detected in crude cell extract was found in the soluble fraction and the activity in solubilized membrane fraction was negligible when assayed with Ferric-Dupanol method.

[4] = tested on: dehydrogenase enzyme activity (SDH) of K. robustum ADM X6L; experiment: as above; assay type: biochemical, Ketogulonigenium robustum ADM X6L
Description: as §4, §5, §6

[5] = tested on: purified SDH enzymes; experiment: Activity of the purified SDH enzymes toward substrates; assay type: biochemical, K. robustum ADM X6L and Ketogulonigenium sp. ADM 291-19; details: purified SDH enzymes of both strains
Description: (§7) First, the periplasmic proteins from the cells of K. robustum ADM X6L and Ketogulonigenium sp. ADM 291-19 obtained in Step 1 of Example 1 were prepared by osmotic shock fractionation as described in Step 3 of Example 1. About 50 ml of osmotic shock fluid containing periplasmic proteins was loaded onto a DEAE-TSK 650 (S) (Merck) column (2.5×15 cm) previously equilibrated with 10 mM Tris·HCl buffer (pH 8.0). The column was first washed with 80 ml of 10 mM Tris·HCl buffer (pH 8.0) containing 0.1 M NaCl, followed by a gradient elution with 600 ml of the same buffer containing 0.1-0.5 M NaCl. Fractions containing 5 ml of eluant were collected and assayed for the SDH enzyme activities with D-sorbitol, L-sorbose and glyoxal as substrate. […] At about 0.15 M NaCl, eluted red fractions that probably contained cytochrome c.
(§8) Active fractions eluted from DEAE column were pooled and further purified by gel filtration column chromatography. The active fractions were concentrated by about 20 fold with ultrafiltration in Centricon 30 (Amicon). The concentrate was loaded onto Superose 12 (Pharmacia) and eluted isocratically with 50 mM sodium phosphate buffer (pH 7.0) containing 0.15 M NaCl.
(§9) The purified enzymes were active toward D-sorbitol, L-sorbose and glyoxal.

[6] = tested on: purified SDH of K. robustum ADM X6L; experiment: Substrate specificity of purified SDH, PMS-DCIP method; assay type: biochemical, Ketogulonigenium robustum ADM X6L; details: substrate 250 mM, 1-Propanol = 100
Description: as §2, §7, §8, §9

[7] = tested on: purified SDH of Ketogulonigenium sp. ADM 291-19; experiment: as above; assay type: biochemical; details: substrate 250 mM, 1-Propanol = 100
Description: The dehydrogenase enzyme activity was assayed spectrophotometrically using 2,6-dichlorophenol indophenol (DCIP) as an artificial electron acceptor and phenazine methosulphate (PMS) as an electron mediator. […] The rate of decrease in absorbance at 522 nm was determined. One unit of enzyme activity was defined as the amount of enzyme catalyzing reduction of 1 μmol of DCIP per minute.
as §7, §8, §9

[8] = tested on: β-galactosidase; experiment: β-Galactosidase activity in osmotic shock fractions (intracellular enzyme marker); assay type: biochemical; details: High Sensitivity β-Galactosidase Assay Kit
Description: as §1, §3

[9] = tested on: K. robustum ADM X6L transformants; experiment: Bioconversion of D-sorbitol by transformants, HPLC of culture supernatant; assay type: cell-based, Ketogulonigenium robustum ADM X6L; details: D-sorbitol as substrate
Description: (§10) For expression of the three SDH genes in K. robustum strains, the genes with their own promoters were subcloned into the vector, pXH2/K5. These plasmids were transformed into the strains, K. robustum ADM X6L and 86-96 (NRRL B-21630), by electroporation. In this case, gene dosage effect may be expected due to the apparent high copy number of the plasmid pXH2/K5. The transformants were analyzed by HPLC for improved conversion activity upon overexpression of each SDH gene using D-sorbitol and L-sorbose as substrate.
(§11) The effect of overexpression of the three SDH genes in bioconversion activity was analyzed by HPLC analysis of the product profile of the culture supernatant of transformants in a medium containing D-sorbitol or L-sorbose as substrate. The transformants were cultivated overnight in RM medium containing 20 μg/ml of Kanamycin. This overnight culture was used to inoculate the 25 ml RM medium (supplemented with 20 μg/ml of Kanamycin) containing 20 g/l of D-sorbitol or 20 g/l of L-sorbose as substrate instead of mannitol. The culture supernatant samples were taken in a 12-hour interval and were analyzed by HPLC (Gilson HPLC with RI detector (ERC-7515A, ERC Inc.)) equipped with Asted XL automatic sample injector. Samples were loaded on two 2 mm×300 mm×7.8 mm Aminex HPX-87H columns (BioRad) arranged in series to provide a total column length of 600 mm. The column was run at 50° C. at a flow rate of 0.5 ml/min. The peaks were identified and the concentration was determined by comparison with those of the standards using glycerol as internal standard.
K. robustum ADM X6L transformants harboring the pXSDH1, pXSDH2 or pXSDH3 were cultivated with D-sorbitol or L-sorbose as substrate. HPLC analysis of the products from D-sorbitol (Table 10) or L-sorbose (Table 11) is shown below. A transformant harboring pXH2 served as control.

[10] = tested on: K. robustum ADM X6L transformants; experiment: Bioconversion of L-sorbose by transformants, HPLC of culture supernatant; assay type: cell-based, Ketogulonigenium robustum ADM X6L
Description: as §10
as §11, with “Samples were loaded on two 2 mm×300 mm×7.8 mm Aminex HPX-87H columns (BioRad) arranged in series to provide a total column length of 600 mm. The column was run at 50° C. at a flow rate of 0.5 ml/min.” left out, “standard. […]” for “standard.”

| Molecule | nicotinamide cofactor dependence (in words) [1] | SDH activity, Osmotic Shock Fluid [2] | SDH activity, Pellet Sonicate [2] | SDH activity, Tris-Sucrose Wash [2] | enzyme activity, Cell Free Extract [3] | enzyme activity, Membrane Fraction [3] | enzyme activity, Soluble Fraction [3] | enzyme activity, Cell Free Extract [4] | enzyme activity, Membrane Fraction [4] | enzyme activity, Soluble Fraction [4] | activity of the purified enzymes toward the substrate (in words) [5] | % relative activity, ADM X6L [6] [%] | % relative activity, ADM291-19 [7] [%] | also measured |
| --- | --- | --- | --- | --- | --- | --- | --- | --- | --- | --- | --- | --- | --- | --- |
| NC(=O)c1ccc[n+]([C@@H]2O[C@H](COP(=O)([O-])OP(=O)(O)OC[C@H]3O[C@@H](n4cnc5c(N)ncnc54)[C@H](O)[C@@H]3O)[C@@H](O)[C@H]2O)c1 [AND] | did not show any sign of nicotinamide cofactor dependence | – | – | – | – | – | – | – | – | – | – | – | – | – |
| O=C(CO)[C@@H](O)[C@H](O)[C@@H](O)CO [L-sorbose] | – | 0.20 ΔOD/min/50 μl enzyme | 0.43 ΔOD/min/50 μl enzyme | 0.14 ΔOD/min/50 μl enzyme | 0.55 ΔOD/min/2 μl enzyme | 0.00 ΔOD/min/2 μl enzyme | 0.53 ΔOD/min/2 μl enzyme | 0.64 ΔOD/min/4 μl enzyme | 0.01 ΔOD/min/4 μl enzyme | 0.61 ΔOD/min/4 μl enzyme | active | 8.7 | 8.8 | – |
| NC(=O)c1ccc[n+]([C@@H]2O[C@H](COP(=O)([O-])OP(=O)(O)OC[C@H]3O[C@@H](n4cnc5c(N)ncnc54)[C@H](OP(=O)(O)O)[C@@H]3O)[C@@H](O)[C@H]2O)c1 [NADP] | did not show any sign of nicotinamide cofactor dependence | – | – | – | – | – | – | – | – | – | – | – | – | – |
| O=S1(=O)OC(c2ccc(O)c(Cl)c2)(c2ccc(O[C@@H]3O[C@H](CO)[C@H](O)[C@H](O)[C@H]3O)c(Cl)c2)c2ccccc21 (stereo partly drawn) [chlorophenol red-β-D-galactopyranoside] | – | – | – | – | – | – | – | – | – | – | – | – | – | β-Galactosidase Activity, Osmotic Shock Fluid ([8]; Osmotic Shock Fluid): 0.057 nmol/min; β-Galactosidase Activity, Pellet Sonicate ([8]; Pellet Sonicate): 2.2 nmol/min; β-Galactosidase Activity, Tris-Sucrose Wash ([8]; Tris-Sucrose Wash): 0.043 nmol/min |
| O=CC=O [glyoxal] | – | 0.43 ΔOD/min/50 μl enzyme | 0.76 ΔOD/min/50 μl enzyme | 0.36 ΔOD/min/50 μl enzyme | 0.61 ΔOD/min/2 μl enzyme | 0.00 ΔOD/min/2 μl enzyme | 0.52 ΔOD/min/2 μl enzyme | 0.39 ΔOD/min/4 μl enzyme | 0.00 ΔOD/min/4 μl enzyme | 0.50 ΔOD/min/4 μl enzyme | active | 15.1 | 16.1 | – |
| SDH2: sorbitol dehydrogenase of K. robustum ADM 86-96, 579 amino acids (SEQ ID NO:7) (protein, listed as Ketogulonigenium sp.) MKTKSFLFAGVAALASYGTIALADVTPVTDELLANPPAGEWISYGRNQENYRHSPLNQITPENVGQLQLVWARGMNAGKVQVTPLIHDGVMYLANPGDIIQAIDAKTGDLIWEHRRQLPNVATLNSFGEPIRGIALYGTNVYFVSWDNHLVALDAATGQVTFDVDRGQGEDMVSNSSGPIVANGVIVAGSTCQYSPFGCFVSGHDATTGEELWRNYFIPKAGEEGDETWGNDYEARWMTGVWGQITYDPVTNLVFYGSSAVGPASETQRGTTGGTMYGTNTRFAVRPDTGEIVWRHQTLPRDNWDQECTFEMMVANVDVQPSADMDGLKSINPNAATGERRVLTGVPCKTGTMWQFDAETGEFLWARDTNYQNMISSIDETGLVTVNEDIILKDLDTDYRICPTFLGGRDWPSASLNPDSGIYFIPLNNACADLAAVDQEFTAMDVYNTSATYLLAPEKENMGRIDAIDISTGKTLWSVERLASNYSPVLSTAGGVLFNGGSDRYFRALSEETGETLWQTRLATVASGQAVSYELDGVQYIAIAGGGTTYGAVQNRPLAEPVDSTSIGNAVYVFALPQQ | – | – | – | – | – | – | – | – | – | – | – | – | – | products formed upon overexpression with D-sorbitol as substrate (in words) [9]: formation of 2-keto-D-gluconic acid (2KDG) as well as 2KLG; improvement of 2KLG production from L-sorbose upon overexpression ([10]; flask scale experiment, versus pXH2 control): 2-3 times; 2KLG production from L-sorbose upon overexpression (in words) ([10]; flask scale experiments): significantly improved |
